Assay results from patent publication US8349793B2, “Method for treatment of inflammatory disease and disorder” (Heal0r, Ltd., priority 2010, dated 2013).
Several values for one entry are separate records, joined by “and”; a condition that tells them apart may be missing. Equal values may be shown once. Where no end group is shown, it is not given here. The star is where a group is joined. Myristoyl = CCCCCCCCCCCCCC(=O)*

Tests used:
healthy volunteers = test: Histamine prick test model of pruritus; type: in vivo, human (healthy volunteers); settings: for Pruritus score after minutes of histamine, 5 minutes / Pruritus score after minutes of histamine, 15 minutes: topical on forearm
Protocol: Forearms of individual subjects were injected with histamine solution and placebo. The formulation of Example 4 was topically applied with MPDY-1 at various concentrations and pruritus was assessed over a time course as shown, for example in FIG. 34.
This test was performed by placing a drop of a solution containing a possible allergen on the skin, and a series of scratches or needle pricks allow the solution to enter the skin. The extract enters into the outer layer of the skin (epidermis) using a fine needle (such as a. 26G disposable needle). This testing is not painful, and generally there is no bleeding involved since the needle only scratches the surface of the skin. If the skin develops a red, raised itchy area (called a wheal), it is as a result of allergic reaction to that allergen. This is called a positive reaction. A drop of extract is introduced through a fine needle (such as a No. 26 disposable needle). The test causes no discomfort and minimal trauma so that controls and negative test show only the site of the prick; if anything.
26G needles were utilized to introduce histamine stock (Histatrol Positive Control Histamine, 1 mg/ml, code #HIST14999V, Trupharm). The test was conducted on healthy volunteers in a double-blind, randomized test. The formulations were applied on the forearms. Three treatment areas were chosen and marked (the surface of the forearm from the elbow to the wrist was divided transversely into proximal, middle and distal thirds); the areas were pricked prior the below treatments.
An area was treated with the active formulation in a double-blind manner, for 10 minutes—marked as A.
An area was treated with the Placebo in a double-blind manner, for 10 minutes—marked as C.
A color photograph was taken at time zero (T0), after 10, 20, 30 minutes.
Pruritus questionnaire was answered by the subjects 5 and 15 minutes after treatment.
In one study, three subjects were treated, in the left or right arm, with MDPY-1 in gel or cream formulations, or with control formulations, as shown in Table 9.
Subjects were provided with pruritus sensation forms and asked to indicate the level of pruritus sensed from 0 (no response) to 4 (uncontrollable pruritus) at different time intervals.

keratinocytes = test: Cytokine secretion in keratinocytes stimulated by LPS, TNFα or IL-17 (ELISA); type: cell-based, BALB/C mice
Protocol: To determine their effects, keratinocytes were derived from newborn BALB/C mice skin. The cells were incubated for 5 days in 24 wells plate. Cells were then incubated with PBS−/− as control or stimulated by LPS, TNFα, or IL-17. PKCα inhibitors were added as indicated. Medium containing secreted cytokines was collected after 48 hr and analyzed using ELISA. FIG. 40 is a tabular summary of cytokine secretion.
PKCδactivators were also shown to have an anti-inflammatory effect on keratinocytes and splenocytes. Keratinocytes were derived from newborn BALB/C mice skin. The cells were incubated for 5 days in 24 wells plate. Cells were then incubated with PBS−/− as control or stimulated by LPS or TNFα. The PKCδ inhibitor DAP-1 (SEQ ID NO: 16) was added. Medium containing secreted cytokines was collected after 48 hr and analyzed using ELISA. FIG. 35 is a tabular summary showing cytokine secretion in splenocytes stimulated with LPS. […] Cytokine secretion in keratinocytes stimulated by TNFα: following stimulation with 35 ng/ml TNFα. And treatment with 10 μg/ml of DAP-1, the cytokine levels of IL-1α, G-CSF, MIP-2 and KC were reduced by 95%, 70%, 20% and 30# respectively.
PKCε inhibitors were also shown to have an anti-inflammatory effect on keratinocytes. Keratinocytes were derived from newborn BALB/C mice skin. The cells were incubated for 5 days in 24 wells plate. Cells were then incubated with PBS−/− as control or stimulated by LPS or TNFα. The PKCεinhibitors EPIP-1 (SEQ ID NO: 20), EPIP-2 (SEQ ID NO: 21), or EPIP-4 (SEQ ID NO: 23) were added. Medium containing secreted cytokines was collected after 48 hr and analyzed using ELISA. FIGS. 36-39 show the results for secretion of specific cytokines while Table 8 summarizes cytokine secretion for the various PKCε inhibitors: […]

C57BL/6J mouse = test: Wound model of skin inflammation, immunohistochemical staining (ICAM-1, Iba-1, MAC-2, CD3, neutrophils); type: in vivo; settings: treated daily
Text: A methodology was developed to detect and quantitatively assess inflammation in skin lesions in a wound setting which allows one to follow cutaneous inflammatory response in the different skin compartments and identify agents that affect this response (as a preliminary screening). Inflammatory response was considered severe when two of the following three conditions were evident: (1) abscess formation; (2) excessive leukocytosis (>100 cells in a fixed field×200); (3) high WB C/RBC ratio in blood vessels, where >20% of WBC content within the blood vessels is shown in a fixed field×200. Mechanistic characterization of the immunological response is studied utilizing markers to identify infiltration and activation of specific immunological cells. Examples for such markers are: ICAM-1 (as a marker activated basal keratinocytes and endothelial cells), MAC-2 (as a marker for activated macrophages) and CD3 (T cell marker).
A two-cm longitudinal incision was done on the upper back of a C57BL/6J mouse. Following wounding, a sterile pad was sutured to the mouse's skin. Animals were treated daily with HO/02/10 (n=12). Five days post-wounding, when inflammatory phase reaches its peak, the mice were sacrificed, skin tissues were embedded in paraffin and immunohistochemical staining was performed utilizing anti-ICAM-1 antibodies.
As above, a two-cm longitudinal incision was done on the upper back of a C57BL/6J mouse. Following wounding, a sterile pad was sutured to the mouse's skin. Animals were treated daily with MPDY-1 (n=6). Five days post-wounding, when inflammatory phase reaches its peak, the mice were sacrificed, skin tissues were embedded in paraffin and immunohistochemical staining was performed utilizing anti-ICAM-1 antibodies.
The effect of MPDY-1 on macrophage infiltration was also shown by Iba-1 staining. Iba-1 is a general marker for macrophages. […] As above, a two-cm longitudinal incision was done on the upper back of a C57BL/6J mouse. Following wounding, a sterile pad was sutured to the mouse's skin. Animals were treated daily with MPDY-1 (n=6). […]

IKK = test: TNFα induced IKK activation in keratinocytes (Western Blot, phospho-IKKa/b); type: cell-based, Murine; settings: TNFα 35 ng/ml for 15 minutes
Protocol: Murine primary keratinocytes were grown for 4 days to full confluence in Low Ca^+2 MEM. Cells were pretreated with designated concentration of MPDY-1 as described in the figure for 1 hour, prior to TNFα induction. Following MPDY-1 pretreatment, cells were incubated with TNFα 35 ng/ml for 15 minutes. Reaction was stopped by adding ice-cold dPBS−/− and keratinocytes were homogenized in RIPA buffer. Samples were subjected to SDS PAGE Western Blot analysis, utilizing phospho-IKKa/b (Ser176/180 antibody).

[1] = 10 ppm in gel, score 0 (no response) to 4 (uncontrollable pruritus)

Substance: Myristoyl-Phe-Ala-Arg-Lys-Gly-Ala-Leu-Arg-Gln (Myristoyl-FARKGALRQ) [MPDY-1]
- Pruritus score after minutes of histamine, 5 minutes (healthy volunteers; 1 μg/ml in DPBS, score 0 to 4): 3
- Pruritus score after minutes of histamine, 15 minutes (healthy volunteers; 1 μg/ml in DPBS, score 0 to 4): 1
- Pruritus score after minutes of histamine, 5 minutes (healthy volunteers; 10 μg/ml in DPBS, score 0 to 4): 2 and 1
- Pruritus score after minutes of histamine, 15 minutes (healthy volunteers; 10 μg/ml in DPBS, score 0 to 4): 0
- Pruritus score after minutes of histamine, 5 minutes (healthy volunteers; 10 ppm in cream, score 0 to 4): 1
- Pruritus score after minutes of histamine, 15 minutes (healthy volunteers; 10 ppm in cream, score 0 to 4): 0
- Pruritus score after minutes of histamine, 5 minutes (healthy volunteers; [1]): 2
- Pruritus score after minutes of histamine, 15 minutes (healthy volunteers; [1]): 0
- redness, inflammation and pruritus as compared with control (healthy volunteers; histamine prick test, over the time course): significantly attenuated
- cytokine secretion from LPS and TNFα activated keratinocytes (keratinocytes; FIGS. 19 to 23): decrease
- cytokine secretion from IL-17A activated keratinocytes (keratinocytes; FIGS. 24 to 27): decrease
- cytokine secretion in keratinocytes (keratinocytes; stimulated by LPS, TNFα, or IL-17, 48 hr): effective in decreasing cytokine secretion
- Activation of macrophages (MAC-2 staining) (C57BL/6J mouse; 5 days, 1, 10 and 100 micrograms per mL): significantly inhibited
- ICAM expression on basal keratinocytes and endothelial cells in blood vessels of the skin (ICAM-1 staining) (C57BL/6J mouse; five days post-wounding): down regulation
- macrophage infiltration (Iba-1 staining) (C57BL/6J mouse; five days post-wounding): dose dependent effect
- MPDY-1 concentration exhibiting the strongest inhibition of IKK activation (IKK; lowest concentration tested): 0.1 mg/mL
- TNFα induced IKK activation in keratinocytes (IKK; pretreated 1 hour, dose dependant): significantly reduced
